# Test results from ChEMBL document CHEMBL4304811, “Development of a Water-Soluble Indolylmaleimide Derivative IM-93 Showing Dual Inhibition of Ferroptosis and NETosis” (ACS Med Chem Lett, 2019).
# How the values were obtained:
# [1] = target: Mitogen-activated protein kinase kinase kinase 2 (Homo sapiens) (UniProt Q9Y2U5); test: Binding affinity to wild-type human partial length MAP3K2 (S315 to H619 residues) expressed in mammalian expression system assessed as residual binding level at 10 uM by Kinomescan method relative to control
# Chain of Mitogen-activated protein kinase kinase kinase 2 (Homo sapiens) (Q9Y2U5 whole entry, the tested form may be a part): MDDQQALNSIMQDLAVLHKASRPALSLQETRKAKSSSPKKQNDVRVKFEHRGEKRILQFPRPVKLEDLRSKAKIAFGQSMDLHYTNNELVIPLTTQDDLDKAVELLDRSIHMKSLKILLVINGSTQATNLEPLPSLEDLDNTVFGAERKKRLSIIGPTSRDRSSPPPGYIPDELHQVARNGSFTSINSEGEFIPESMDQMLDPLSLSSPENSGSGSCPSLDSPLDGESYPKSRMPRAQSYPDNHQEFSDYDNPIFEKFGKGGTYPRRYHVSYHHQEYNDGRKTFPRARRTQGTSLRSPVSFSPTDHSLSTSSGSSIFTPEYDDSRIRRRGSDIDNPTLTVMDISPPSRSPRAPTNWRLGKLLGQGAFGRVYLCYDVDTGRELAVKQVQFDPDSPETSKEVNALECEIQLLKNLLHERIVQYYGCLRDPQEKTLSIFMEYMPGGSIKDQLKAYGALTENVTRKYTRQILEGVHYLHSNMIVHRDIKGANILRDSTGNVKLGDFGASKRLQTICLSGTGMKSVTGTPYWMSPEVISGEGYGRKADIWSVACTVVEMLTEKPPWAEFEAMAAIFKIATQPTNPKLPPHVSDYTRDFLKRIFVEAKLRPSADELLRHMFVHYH
# [2] = target: Serine/threonine-protein kinase NIM1 (Homo sapiens) (UniProt Q8IY84); test: Binding affinity to wild-type human partial length NIM1 (Q44 to N355 residues) expressed in mammalian expression system assessed as residual binding level at 10 uM by Kinomescan method relative to control
# Chain of Serine/threonine-protein kinase NIM1 (Homo sapiens) (Q8IY84 whole entry, the tested form may be a part, canonical isoform): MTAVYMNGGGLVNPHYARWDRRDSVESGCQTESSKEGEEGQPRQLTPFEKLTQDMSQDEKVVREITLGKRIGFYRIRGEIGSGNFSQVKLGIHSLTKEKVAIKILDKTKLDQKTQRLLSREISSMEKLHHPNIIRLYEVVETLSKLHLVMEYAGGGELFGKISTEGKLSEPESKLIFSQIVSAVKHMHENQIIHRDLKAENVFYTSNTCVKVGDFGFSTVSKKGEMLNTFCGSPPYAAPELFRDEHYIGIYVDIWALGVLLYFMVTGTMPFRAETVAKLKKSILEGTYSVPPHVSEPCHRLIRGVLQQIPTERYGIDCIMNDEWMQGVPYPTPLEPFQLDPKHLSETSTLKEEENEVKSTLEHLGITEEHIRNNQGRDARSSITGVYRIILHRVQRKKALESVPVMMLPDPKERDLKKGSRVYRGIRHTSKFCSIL
# [3] = tested on: Phosphatidylinositol 4,5-bisphosphate 3-kinase catalytic subunit alpha isoform (Homo sapiens), P42336 [I800L]; test: Binding affinity to human partial length PIK3CA I800L mutant (R108 to N1068 residues) expressed in mammalian expression system assessed as residual binding level at 10 uM by Kinomescan method relative to control
# [4] = target: Serine/threonine-protein kinase ULK1 (Homo sapiens) (UniProt O75385); test: Binding affinity to wild-type human partial length ULK1 (M1 to T309 residues) expressed in mammalian expression system assessed as residual binding level at 10 uM by Kinomescan method relative to control
# [5] = target: Serine/threonine-protein kinase NLK (Homo sapiens) (UniProt Q9UBE8); test: Binding affinity to wild-type human full length NLK (M13 to E527 residues) expressed in bacterial expression system assessed as residual binding level at 10 uM by Kinomescan method relative to control
# [6] = target: Cyclin-dependent kinase 14 (Homo sapiens) (UniProt O94921); test: Binding affinity to wild-type human full length PFTK1 (M1 to H451 residues) expressed in bacterial expression system assessed as residual binding level at 10 uM by Kinomescan method relative to control
# [7] = target: Ephrin type-A receptor 7 (Homo sapiens) (UniProt Q15375); test: Binding affinity to wild-type human partial length EPHA7 (Y608 to S912 residues) expressed in bacterial expression system assessed as residual binding level at 10 uM by Kinomescan method relative to control
# [8] = target: Tyrosine-protein kinase Srms (Homo sapiens) (UniProt Q9H3Y6); test: Binding affinity to wild-type human partial length SRMS (L208 to P488 residues) expressed in mammalian expression system assessed as residual binding level at 10 uM by Kinomescan method relative to control
# Chain of Tyrosine-protein kinase Srms (Homo sapiens) (Q9H3Y6 whole entry, the tested form may be a part): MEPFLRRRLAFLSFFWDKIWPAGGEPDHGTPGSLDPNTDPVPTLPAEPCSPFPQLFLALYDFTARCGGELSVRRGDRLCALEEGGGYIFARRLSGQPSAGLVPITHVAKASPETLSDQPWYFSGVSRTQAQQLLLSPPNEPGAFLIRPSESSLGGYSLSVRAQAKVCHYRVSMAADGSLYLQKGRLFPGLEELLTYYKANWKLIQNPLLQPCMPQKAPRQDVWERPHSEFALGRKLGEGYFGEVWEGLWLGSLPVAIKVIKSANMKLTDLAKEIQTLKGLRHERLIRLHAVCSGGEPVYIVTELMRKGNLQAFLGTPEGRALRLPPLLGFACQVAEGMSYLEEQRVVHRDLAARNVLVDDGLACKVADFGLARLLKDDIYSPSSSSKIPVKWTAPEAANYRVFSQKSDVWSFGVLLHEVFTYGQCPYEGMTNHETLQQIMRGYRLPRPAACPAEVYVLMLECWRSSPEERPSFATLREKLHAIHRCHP
# [9] = target: Mitogen-activated protein kinase kinase kinase 12 (DLK) (Homo sapiens) (UniProt Q12852); test: Binding affinity to wild-type human full length DLK (M1 to P859 residues) expressed in mammalian expression system assessed as residual binding level at 10 uM by Kinomescan method relative to control
# [10] = target: Serine/threonine-protein kinase 32B (Homo sapiens) (UniProt Q9NY57); test: Binding affinity to wild-type human full length YANK2 (M1 to S414 residues) expressed in bacterial expression system assessed as residual binding level at 10 uM by Kinomescan method relative to control
# [11] = target: Ephrin type-B receptor 1 (Homo sapiens) (UniProt P54762); test: Binding affinity to wild-type human partial length EPHB1 (P589 to T911 residues) expressed in bacterial expression system assessed as residual binding level at 10 uM by Kinomescan method relative to control
# [12] = target: Dual specificity tyrosine-phosphorylation-regulated kinase 2 (Homo sapiens) (UniProt Q92630); test: Binding affinity to wild-type human full length DYRK2 (M1 to S528 residues) expressed in mammalian expression system assessed as residual binding level at 10 uM by Kinomescan method relative to control
# [13] = target: RAC-alpha serine/threonine-protein kinase (Homo sapiens) (UniProt P31749); test: Binding affinity to wild-type human partial length AKT1 expressed in bacterial expression system assessed as residual binding level at 10 uM by Kinomescan method relative to control
# [14] = target: Serine/threonine-protein kinase WNK1 (Homo sapiens) (UniProt Q9H4A3); test: Binding affinity to wild-type human partial length WNK1 (Q194 to A490 residues) expressed in mammalian expression system assessed as residual binding level at 10 uM by Kinomescan method relative to control
# [15] = target: Bone morphogenetic protein receptor type-1B (Homo sapiens) (UniProt O00238); test: Binding affinity to wild-type human partial length BMPR1B (D178 to L502 residues) expressed in mammalian expression system assessed as residual binding level at 10 uM by Kinomescan method relative to control
# [16] = target: Serine/threonine-protein kinase PAK 1 (Homo sapiens) (UniProt Q13153); test: Binding affinity to wild-type human partial length PAK1 (S149 to H545 residues) expressed in bacterial expression system assessed as residual binding level at 10 uM by Kinomescan method relative to control
# [17] = target: Serine/threonine-protein kinase MRCK beta (Homo sapiens) (UniProt Q9Y5S2); test: Binding affinity to wild-type human partial length MRCKB (L56 to S417 residues) expressed in bacterial expression system assessed as residual binding level at 10 uM by Kinomescan method relative to control
# Chain of Serine/threonine-protein kinase MRCK beta (Homo sapiens) (Q9Y5S2 whole entry, the tested form may be a part): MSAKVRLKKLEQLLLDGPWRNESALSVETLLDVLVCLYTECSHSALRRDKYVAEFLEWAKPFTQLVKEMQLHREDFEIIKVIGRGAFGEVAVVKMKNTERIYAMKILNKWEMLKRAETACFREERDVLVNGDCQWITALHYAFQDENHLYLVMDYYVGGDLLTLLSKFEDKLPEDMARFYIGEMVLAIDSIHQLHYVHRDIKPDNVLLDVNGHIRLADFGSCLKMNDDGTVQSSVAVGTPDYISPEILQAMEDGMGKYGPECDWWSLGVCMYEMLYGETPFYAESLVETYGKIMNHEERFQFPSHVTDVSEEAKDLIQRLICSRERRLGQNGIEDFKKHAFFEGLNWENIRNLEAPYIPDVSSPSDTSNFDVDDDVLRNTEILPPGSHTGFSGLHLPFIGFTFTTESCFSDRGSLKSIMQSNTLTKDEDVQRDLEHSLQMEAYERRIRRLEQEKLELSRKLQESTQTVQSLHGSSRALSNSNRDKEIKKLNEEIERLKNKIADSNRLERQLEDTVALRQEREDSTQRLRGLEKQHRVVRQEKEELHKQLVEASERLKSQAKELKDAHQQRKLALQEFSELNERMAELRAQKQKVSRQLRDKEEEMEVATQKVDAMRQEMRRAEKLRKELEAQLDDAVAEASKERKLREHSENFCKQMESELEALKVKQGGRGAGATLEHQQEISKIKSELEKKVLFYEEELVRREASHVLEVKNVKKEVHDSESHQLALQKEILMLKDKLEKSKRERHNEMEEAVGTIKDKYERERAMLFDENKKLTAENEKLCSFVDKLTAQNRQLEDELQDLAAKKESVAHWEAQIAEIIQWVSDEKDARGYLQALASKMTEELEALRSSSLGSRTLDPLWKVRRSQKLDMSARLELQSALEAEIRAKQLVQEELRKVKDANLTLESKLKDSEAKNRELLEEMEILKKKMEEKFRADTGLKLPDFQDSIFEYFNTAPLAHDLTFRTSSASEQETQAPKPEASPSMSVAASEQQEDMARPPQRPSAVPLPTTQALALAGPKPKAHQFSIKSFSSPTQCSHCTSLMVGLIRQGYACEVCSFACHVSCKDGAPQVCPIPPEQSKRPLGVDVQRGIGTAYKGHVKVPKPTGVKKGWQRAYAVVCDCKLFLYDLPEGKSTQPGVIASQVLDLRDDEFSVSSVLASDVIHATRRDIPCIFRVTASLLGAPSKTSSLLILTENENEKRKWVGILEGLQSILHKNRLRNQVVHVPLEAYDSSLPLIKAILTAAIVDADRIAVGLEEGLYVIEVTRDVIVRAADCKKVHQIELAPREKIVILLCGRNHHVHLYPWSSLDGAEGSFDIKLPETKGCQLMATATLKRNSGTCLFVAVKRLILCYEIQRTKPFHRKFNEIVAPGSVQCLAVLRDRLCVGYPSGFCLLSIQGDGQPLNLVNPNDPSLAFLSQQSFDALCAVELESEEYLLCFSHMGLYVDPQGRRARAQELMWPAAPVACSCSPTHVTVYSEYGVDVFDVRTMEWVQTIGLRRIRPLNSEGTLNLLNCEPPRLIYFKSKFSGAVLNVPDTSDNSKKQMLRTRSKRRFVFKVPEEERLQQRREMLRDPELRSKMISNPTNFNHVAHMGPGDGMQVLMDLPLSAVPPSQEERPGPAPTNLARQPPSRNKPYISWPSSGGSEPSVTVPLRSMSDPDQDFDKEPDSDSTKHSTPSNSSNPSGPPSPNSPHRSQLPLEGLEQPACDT
# [18] = target: Casein kinase II subunit alpha (Homo sapiens) (UniProt P68400); test: Binding affinity to wild-type human full length CSNK2A1 (M1 to Q391 residues) expressed in mammalian expression system assessed as residual binding level at 10 uM by Kinomescan method relative to control
# [19] = target: Mitogen-activated protein kinase kinase kinase kinase 5 (Homo sapiens) (UniProt Q9Y4K4); test: Binding affinity to wild-type human partial length MAP4K5 (M1 to P297 residues) expressed in bacterial expression system assessed as residual binding level at 10 uM by Kinomescan method relative to control
# [20] = target: Serine/threonine-protein kinase OSR1 (Homo sapiens) (UniProt O95747); test: Binding affinity to wild-type human full length OSR1 (M1 to S527 residues) expressed in mammalian expression system assessed as residual binding level at 10 uM by Kinomescan method relative to control
# [21] = tested on: Mast/stem cell growth factor receptor Kit (Homo sapiens), P10721 [V559D,T670I]; test: Binding affinity to human partial length KIT V559D/T670I double mutant (Y545 to D952 residues) expressed in bacterial expression system assessed as residual binding level at 10 uM by Kinomescan method relative to control
# [22] = target: Ephrin type-A receptor 4 (Homo sapiens) (UniProt P54764); test: Binding affinity to wild-type human partial length EPHA4 (T601 to R897 residues) expressed in bacterial expression system assessed as residual binding level at 10 uM by Kinomescan method relative to control
# Chain of Ephrin type-A receptor 4 (Homo sapiens) (P54764 whole entry, the tested form may be a part): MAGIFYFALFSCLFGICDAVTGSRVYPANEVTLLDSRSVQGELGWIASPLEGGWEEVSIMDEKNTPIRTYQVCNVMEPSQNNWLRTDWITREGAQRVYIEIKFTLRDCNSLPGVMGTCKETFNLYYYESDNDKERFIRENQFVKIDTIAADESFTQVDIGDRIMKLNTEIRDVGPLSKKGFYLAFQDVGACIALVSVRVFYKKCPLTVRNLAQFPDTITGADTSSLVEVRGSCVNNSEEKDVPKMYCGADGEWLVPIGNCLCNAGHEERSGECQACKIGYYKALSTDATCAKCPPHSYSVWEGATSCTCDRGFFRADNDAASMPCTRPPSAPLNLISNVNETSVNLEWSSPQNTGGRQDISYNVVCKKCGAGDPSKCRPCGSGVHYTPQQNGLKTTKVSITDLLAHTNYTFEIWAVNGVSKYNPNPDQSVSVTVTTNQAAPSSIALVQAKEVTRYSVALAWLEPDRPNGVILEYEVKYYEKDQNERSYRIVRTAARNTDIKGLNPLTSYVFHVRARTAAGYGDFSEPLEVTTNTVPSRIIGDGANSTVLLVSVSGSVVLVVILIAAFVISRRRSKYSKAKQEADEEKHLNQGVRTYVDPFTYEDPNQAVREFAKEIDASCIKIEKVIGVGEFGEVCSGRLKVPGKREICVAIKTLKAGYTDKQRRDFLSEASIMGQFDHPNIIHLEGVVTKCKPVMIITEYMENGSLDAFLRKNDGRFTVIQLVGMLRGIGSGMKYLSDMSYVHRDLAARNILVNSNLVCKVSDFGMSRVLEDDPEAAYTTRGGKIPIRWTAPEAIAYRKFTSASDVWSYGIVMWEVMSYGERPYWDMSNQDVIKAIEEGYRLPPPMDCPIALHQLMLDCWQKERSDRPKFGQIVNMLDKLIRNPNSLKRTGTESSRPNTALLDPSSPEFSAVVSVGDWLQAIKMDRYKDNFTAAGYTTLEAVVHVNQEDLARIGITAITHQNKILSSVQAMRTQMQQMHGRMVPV
# [23] = target: Calcium/calmodulin-dependent protein kinase type II subunit delta (Homo sapiens) (UniProt Q13557); test: Binding affinity to wild-type human partial length CAMK2D (M1 to E329 residues) expressed in bacterial expression system assessed as residual binding level at 10 uM by Kinomescan method relative to control
# [24] = target: Ribosomal protein S6 kinase alpha-2 (Homo sapiens) (UniProt Q15349); test: Binding affinity to wild-type human partial length N- terminal RSK3 kinase domain 1 (M1 to Q385 residues) expressed in bacterial expression system assessed as residual binding level at 10 uM by Kinomescan method relative to control
# Chain of Ribosomal protein S6 kinase alpha-2 (Homo sapiens) (Q15349 whole entry, the tested form may be a part): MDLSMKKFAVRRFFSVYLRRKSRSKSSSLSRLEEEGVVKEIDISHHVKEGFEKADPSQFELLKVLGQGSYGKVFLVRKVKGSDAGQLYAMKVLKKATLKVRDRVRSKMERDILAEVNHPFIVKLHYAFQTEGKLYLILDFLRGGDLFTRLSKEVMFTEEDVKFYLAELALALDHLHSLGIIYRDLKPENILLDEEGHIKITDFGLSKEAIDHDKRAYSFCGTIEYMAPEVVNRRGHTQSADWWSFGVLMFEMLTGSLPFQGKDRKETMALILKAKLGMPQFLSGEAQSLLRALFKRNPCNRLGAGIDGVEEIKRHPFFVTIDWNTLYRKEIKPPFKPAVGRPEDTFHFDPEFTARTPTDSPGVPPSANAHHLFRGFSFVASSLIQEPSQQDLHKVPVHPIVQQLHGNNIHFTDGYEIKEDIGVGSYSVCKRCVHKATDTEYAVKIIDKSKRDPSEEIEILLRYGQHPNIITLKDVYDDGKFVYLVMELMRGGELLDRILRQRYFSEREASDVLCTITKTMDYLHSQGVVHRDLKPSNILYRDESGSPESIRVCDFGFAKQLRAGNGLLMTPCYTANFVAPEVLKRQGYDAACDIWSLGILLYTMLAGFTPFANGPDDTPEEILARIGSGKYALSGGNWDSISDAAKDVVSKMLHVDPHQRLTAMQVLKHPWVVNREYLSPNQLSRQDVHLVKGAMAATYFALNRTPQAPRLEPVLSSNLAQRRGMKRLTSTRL
smiles,measurement,setting,value
CC(C)N1C(=O)C(NCCCN(C)C)=C(c2cn(C)c3ccccc23)C1=O.Cl,Activity,[1],83%
same,Activity,[2],90%
same,Activity,[3],92%
same,Activity,[4],79%
same,Activity,[5],94%
same,Activity,[6],100%
same,Activity,[7],93%
same,Activity,[8],82%
same,Activity,[9],99%
same,Activity,[10],99%
same,Activity,[11],99%
same,Activity,[12],87%
same,Activity,[13],95%
same,Activity,[14],68%
same,Activity,[15],78%
same,Activity,[16],92%
same,Activity,[17],85%
same,Activity,[18],98%
same,Activity,[19],100%
same,Activity,[20],77%
same,Activity,[21],100%
same,Activity,[22],100%
same,Activity,[23],98%
same,Activity,[24],100%
